Where two headings read alike, the source gives them in different places.
Columns and labels:
E. coli DH1 ΔacrAB [1] = conditions: for toxicity of the biofuel to cell growth: E. coli host, in words; for biofuel level that inhibited growth: added to pooled culture in M9 minimal medium, aimed at an inhibitory concentration that reduced growth by 25%
Description: In order to screen the efflux pump library against a variety of biofuels we devised a competition-based strategy to select for pumps that improved biofuel tolerance (FIG. 1A). Cells containing plasmids with individual pumps were grown separately and then pooled so that all individual strains were represented equally. This pooled culture was then grown both with and without biofuel, and maintained through serial dilutions every 10-14 hours over a total of 96 hours. At each dilution time point, plasmids from each culture were isolated and a custom microarray was used to quantify the amount of each efflux pump plasmid present in the culture (Methods).
Pooled culture glycerol stocks were used to inoculate M9 minimal medium with 30 μg/ml kanamycin and 10 μM IPTG. The culture was then divided into tubes to a final volume of 5 ml and biofuel was added directly to the tubes. All conditions were prepared in triplicate. Cultures were grown at 37° C. with orbital shaking at 200 rpm for all experiments.
Every 10-14 hours the cultures were diluted 1:100 into 5 ml of fresh M9 minimal medium with kanamycin, IPTG, and biofuel (where applicable). For the time-course assay, cultures were spun down at the completion of a growth cycle and plasmids were isolated. For end point competition assays, plasmid was isolated from the culture after 72 hours of serial dilution.
Custom microarrays (NimbleGen, Roche, USA) were used to measure the relative quantities of the efflux pumps present in the plasmid DNA isolated from the competition cultures. Arrays were designed so that they contained probes for all HAE1 annotated efflux pumps from all sequenced bacterial genomes. 12×135K arrays were used to allow for 12 experiments per slide.
Plasmid DNA was labeled and hybridized following the protocol for NimbleGen Comparative Genomic Hybridization Microarrays with minor modifications (Supporting Methods). Data were normalized using the standard settings for RMA analysis in the NimbleScan software. Probe values were averaged using a custom Matlab script (Mathworks, Inc.). […] For the positive hybridization control, all library plasmids were prepared individually and combined in vitro in equal proportions. For the negative hybridization control, a plasmid with the same vector backbone as those in the library, but no efflux pump, was isolated from DH1 ΔacrAB. Both hybridization controls were labeled and hybridized to the array using the methods described above.
This required the use of a co-solvent in order to accurately pipette small volumes. In both cases dimethylformamide (DMF) was used as the co-solvent. […] Other biofuels were added directly without the use of a co-solvent.

E. coli DH1 ΔacrAB [2] = assay type: cell-based; conditions: for effect of efflux pumps on tolerance to the biofuel (survival relative to pump-free negative control): top performing pump versus negative control, FIG. 3B and 3D
Description: Individual strains were adapted to M9 minimal medium as described in the Supporting Methods. […] The biofuel being tested was added directly to the cultures and they were grown overnight at 37° C. with orbital shaking. For end point measurements, the optical density was measured after 14 hours of growth in triplicate 5 ml cultures. For growth curve measurements, cultures were grown in triplicate in 24-well plates with 800 μl per well and optical density was measured every 10 minutes with a plate reader (BioTek Synergy 4, USA).

[3] = 2% geranyl acetate, serial dilution competition

With `CC(C)=CCC/C(C)=C/CO` [geraniol] as the molecule, how does the “toxicity of the biofuel to cell growth” value (E. coli DH1 ΔacrAB [1]) read?
Its value is “high and quite toxic”.

What about the “biofuel level that inhibited growth” value (E. coli DH1 ΔacrAB [1]) of the same molecule?
Its value is 0.05 % v/v.

And the “effect of efflux pumps on tolerance to the biofuel (survival relative to pump-free negative control)” value (E. coli DH1 ΔacrAB [2])?
Its value is “increase survival several-fold”.

For `CC(=O)OC/C=C(\C)CCC=C(C)C` [geranyl acetate], which “biofuel level that inhibited growth” value (E. coli DH1 ΔacrAB [1]) is on record?
Its value is 2 % v/v.

And the “effect of efflux pumps on tolerance to the biofuel (survival relative to pump-free negative control)” value (E. coli DH1 ΔacrAB [2])?
Its value is “essentially confer immunity”.

Which results are given for `CC(C)CCO` [isopentanol]?
toxicity of the biofuel to cell growth (E. coli DH1 ΔacrAB [1]): toxic; biofuel level that inhibited growth (E. coli DH1 ΔacrAB [1]): 0.25 % v/v; effect of efflux pumps on tolerance to the biofuel (survival relative to pump-free negative control) (E. coli DH1 ΔacrAB [2]): none of the pumps we tested confer an advantage

Which results are given for `CCCCO` [n-butanol]?
toxicity of the biofuel to cell growth (E. coli DH1 ΔacrAB [1]): toxic; biofuel level that inhibited growth (E. coli DH1 ΔacrAB [1]): 0.5 % v/v; effect of efflux pumps on tolerance to the biofuel (survival relative to pump-free negative control) (E. coli DH1 ΔacrAB [2]): none of the pumps we tested confer an advantage

B1: AcrB: Escherichia coli K12 AcrAB efflux pump, plasmid-based copy (protein, UniProt P31224 1-1049, looked up)
Multidrug efflux pump subunit …: MPNFFIDRPIFAWVIAIIIMLAGGLAILKLPVAQYPTIAPPAVTISASYPGADAKTVQDTVTQVIEQNMNGIDNLMYMSSNSDSTGTVQITLTFESGTDADIAQVQVQNKLQLAMPLLPQEVQQQGVSVEKSSSSFLMVVGVINTDGTMTQEDISDYVAANMKDAISRTSGVGDVQLFGSQYAMRIWMNPNELNKFQLTPVDVITAIKAQNAQVAAGQLGGTPPVKGQQLNASIIAQTRLTSTEEFGKILLKVNQDGSRVLLRDVAKIELGGENYDIIAEFNGQPASGLGIKLATGANALDTAAAIRAELAKMEPFFPSGLKIVYPYDTTPFVKISIHEVVKTLVEAIILVFLVMYLFLQNFRATLIPTIAVPVVLLGTFAVLAAFGFSINTLTMFGMVLAIGLLVDDAIVVVENVERVMAEEGLPPKEATRKSMGQIQGALVGIAMVLSAVFVPMAFFGGSTGAIYRQFSITIVSAMALSVLVALILTPALCATMLKPIAKGDHGEGKKGFFGWFNRMFEKSTHHYTDSVGGILRSTGRYLVLYLIIVVGMAYLFVRLPSSFLPDEDQGVFMTMVQLPAGATQERTQKVLNEVTHYYLTKEKNNVESVFAVNGFGFAGRGQNTGIAFVSLKDWADRPGEENKVEAITMRATRAFSQIKDAMVFAFNLPAIVELGTATGFDFELIDQAGLGHEKLTQARNQLLAEAAKHPDMLTSVRPNGLEDTPQFKIDIDQEKAQALGVSINDINTTLGAAWGGSYVNDFIDRGRVKKVYVMSEAKYRMLPDDIGDWYVRAADGQMVPFSAFSSSRWEYGSPRLERYNGLPSMEILGQAAPGKSTGEAMELMEQLASKLPTGVGYDWTGMSYQERLSGNQAPSLYAISLIVVFLCLAALYESWSIPFSVMLVVPLGVIGALLAATFRGLTNDVYFQVGLLTTIGLSAKNAILIVEFAKDLMDKEGKGLIEATLDAVRMRLRPILMTSLAFILGVMPLVISTGAGSGAQNAVGTGVMGGMVTATVLAIFFVPVFFVVVRRRFSRKNEDIEHSHTVDHH
For B1, which “outcome of efflux pump in competition” value (E. coli DH1 ΔacrAB [1]; 0.025% limonene, 72 hours serial dilution) is on record?
The value was “best exported”.

What about the “outcome of efflux pump in competition” value (E. coli DH1 ΔacrAB [1]; 0.05% geraniol, 72 hours serial dilution) of the same molecule?
Its value is “best exported”.

What about the “outcome of efflux pump in competition” value (E. coli DH1 ΔacrAB [1]; [3]) of the same molecule?
The value was “survived the competition”.

B2: MexB: Pseudomonas aeruginosa PAO1 MexAB-OprM multidrug efflux pump (protein, UniProt P52002 1-1046, looked up)
Multidrug resistance protein …: MSKFFIDRPIFAWVIALVIMLAGGLSILSLPVNQYPAIAPPAIAVQVSYPGASAETVQDTVVQVIEQQMNGIDNLRYISSESNSDGSMTITVTFEQGTDPDIAQVQVQNKLQLATPLLPQEVQRQGIRVTKAVKNFLMVVGVVSTDGSMTKEDLSNYIVSNIQDPLSRTKGVGDFQVFGSQYSMRIWLDPAKLNSYQLTPGDVSSAIQAQNVQISSGQLGGLPAVKGQQLNATIIGKTRLQTAEQFENILLKVNPDGSQVRLKDVADVGLGGQDYSINAQFNGSPASGIAIKLATGANALDTAKAIRQTIANLEPFMPQGMKVVYPYDTTPVVSASIHEVVKTLGEAILLVFLVMYLFLQNFRATLIPTIAVPVVLLGTFGVLAAFGFSINTLTMFGMVLAIGLLVDDAIVVVENVERVMAEEGLSPREAARKSMGQIQGALVGIAMVLSAVFLPMAFFGGSTGVIYRQFSITIVSAMALSVIVALILTPALCATMLKPIEKGDHGEHKGGFFGWFNRMFLSTTHGYERGVASILKHRAPYLLIYVVIVAGMIWMFTRIPTAFLPDEDQGVLFAQVQTPPGSSAERTQVVVDSMREYLLEKESSSVSSVFTVTGFNFAGRGQSSGMAFIMLKPWEERPGGENSVFELAKRAQMHFFSFKDAMVFAFAPPSVLELGNATGFDLFLQDQAGVGHEVLLQARNKFLMLAAQNPALQRVRPNGMSDEPQYKLEIDDEKASALGVSLADINSTVSIAWGSSYVNDFIDRGRVKRVYLQGRPDARMNPDDLSKWYVRNDKGEMVPFNAFATGKWEYGSPKLERYNGVPAMEILGEPAPGLSSGDAMAAVEEIVKQLPKGVGYSWTGLSYEERLSGSQAPALYALSLLVVFLCLAALYESWSIPFSVMLVVPLGVIGALLATSMRGLSNDVFFQVGLLTTIGLSAKNAILIVEFAKELHEQGKGIVEAAIEACRMRLRPIVMTSLAFILGVVPLAISTGAGSGSQHAIGTGVIGGMVTATVLAIFWVPLFYVAVSTLFKDEASKQQASVEKGQ
How did the “outcome of efflux pump in competition” value (E. coli DH1 ΔacrAB [1]; [3]) turn out when B2 was run?
The value was “survived the competition”.

What about the “outcome of efflux pump in competition” value (E. coli DH1 ΔacrAB [1]; 2% α-pinene, 72 hours serial dilution) of the same molecule?
The value was “borderline survivor”.

What about the “growth of individual pump-expressing strain” value (E. coli DH1 ΔacrAB [2]; with 2% α-pinene, grown independently) of the same molecule?
The value was “survives well in α-pinene for the first 10 hours”.

Source: patent publication US9428726B2, “Modified host cells with efflux pumps” (priority 2010, dated 2016)
